# Laboratory results taken from PubChem BioAssay AID330 (DTP/NCI, 2004).
# Several values for one entry are separate records, joined by “and”; a condition that tells them apart may be missing. Equal values may be shown once. Inconclusive results and toxic doses are left out.
# System: P388 leukemia ip, CD2F1 mice, survival T/C
# Test: NCI In Vivo Anticancer Drug Screen. Data for tumor model P388 Leukemia (intraperitoneal) in CD2F1 (CDF1) mice
# Conditions: endpoint: median survival time, higher = longer survival
# How it was run: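 Mice carrying the transplanted tumor received test compound or vehicle. Survival was recorded in each group, and the value is the treated-group measurement divided by that of the vehicle-treated control group.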
# [1] = dose: 6.25 mg/kg/injection, schedule: Q01DX009 (ip), vehicle: saline with Tween-80
# [2] = dose: 12.5 mg/kg/injection, schedule: Q01DX009 (ip), vehicle: saline with Tween-80
# [3] = dose: 25.0 mg/kg/injection, schedule: Q01DX009 (ip), vehicle: saline with Tween-80
# [4] = dose: 50.0 mg/kg/injection, schedule: Q01DX009 (ip), vehicle: saline with Tween-80
# [5] = dose: 50.0 mg/kg/injection, schedule: Q01DX005 (ip), vehicle: saline with Tween-80
# [6] = dose: 100.0 mg/kg/injection, schedule: Q01DX005 (ip), vehicle: saline with Tween-80
# [7] = dose: 200.0 mg/kg/injection, schedule: Q01DX005 (ip), vehicle: saline with Tween-80
# [8] = dose: 100.0 mg/kg/injection, schedule: Q01DX009 (ip), vehicle: saline with Tween-80
# [9] = dose: 200.0 mg/kg/injection, schedule: Q01DX009 (ip), vehicle: saline with Tween-80
# [10] = dose: 100.0 mg/kg/injection, schedule: Q01DX009 (ip), vehicle: Klucel (hydroxypropylcellulose) (HPC)
# [11] = dose: 50.0 mg/kg/injection, schedule: Q01DX005 (ip), vehicle: Klucel (hydroxypropylcellulose) (HPC)
# [12] = dose: 100.0 mg/kg/injection, schedule: Q01DX005 (ip), vehicle: Klucel (hydroxypropylcellulose) (HPC)
# [13] = dose: 200.0 mg/kg/injection, schedule: Q01DX005 (ip), vehicle: Klucel (hydroxypropylcellulose) (HPC)
# [14] = dose: 12.5 mg/kg/injection, schedule: Q01DX001 (ip), vehicle: saline with Tween-80
# [15] = dose: 25.0 mg/kg/injection, schedule: Q01DX001 (ip), vehicle: saline with Tween-80
# [16] = dose: 100.0 mg/kg/injection, schedule: Q01DX001 (ip), vehicle: saline with Tween-80
# [17] = dose: 50.0 mg/kg/injection, schedule: Q01DX001 (ip), vehicle: saline with Tween-80
# [18] = dose: 200.0 mg/kg/injection, schedule: Q01DX001 (ip), vehicle: saline with Tween-80
# [19] = dose: 400.0 mg/kg/injection, schedule: Q01DX001 (ip), vehicle: saline with Tween-80
compound,measurement,setting,value
S=c1[nH]c2cc(Cl)ccc2o1,T/C,[1],108 % of control
same,T/C,[2],96 % of control
same,T/C,[3],117 % of control
same,T/C,[4],105 % of control
C=CCn1c(=O)c2[nH]c(Cl)nc2n(CC)c1=O,T/C,"dose: 16.0 mg/kg/injection, schedule: Q01DX009 (ip), vehicle: Klucel (hydroxypropylcellulose) (HPC)",100 % of control and 105 % of control
same,T/C,"dose: 32.0 mg/kg/injection, schedule: Q01DX009 (ip), vehicle: Klucel (hydroxypropylcellulose) (HPC)",106 % of control and 94 % of control
same,T/C,"dose: 64.0 mg/kg/injection, schedule: Q01DX009 (ip), vehicle: Klucel (hydroxypropylcellulose) (HPC)",102 % of control and 106 % of control
CCC[CH2][Sn]1([CH2]CCC)[O]C(=O)C[S]1,T/C,"dose: 0.75 mg/kg/injection, schedule: Q01DX009 (ip), vehicle: saline",100 % of control
same,T/C,"dose: 1.5 mg/kg/injection, schedule: Q01DX009 (ip), vehicle: saline",108 % of control
same,T/C,"dose: 2.0 mg/kg/injection, schedule: Q01DX009 (ip), vehicle: saline with Tween-80",115 % of control
same,T/C,"dose: 2.0 mg/kg/injection, schedule: Q04DX003 (ip), vehicle: saline with Tween-80",118 % of control
same,T/C,"dose: 4.5 mg/kg/injection, schedule: Q04DX003 (ip), vehicle: saline with Tween-80",150 % of control
C=CCOc1cc2c(cc1C(C)c1ccc(F)cc1)OCO2 (stereo not drawn),T/C,[5],100 % of control
same,T/C,[6],104 % of control
same,T/C,[7],100 % of control
O=C(Nc1ccc(OCCCCCOc2ccccc2)cc1)C(F)(F)F,T/C,[4],100 % of control
same,T/C,[8],116 % of control
same,T/C,[9],114 % of control
CC(C)C(NC(=O)CCl)C(=O)O (stereo not drawn),T/C,[10],98 % of control
same,T/C,"dose: 200.0 mg/kg/injection, schedule: Q01DX009 (ip), vehicle: Klucel (hydroxypropylcellulose) (HPC)",109 % of control
COc1cccc(C2OC3=C(Nc4ccc(Cl)cc4N3)C2=O)c1 (stereo not drawn),T/C,[11],93 % of control
same,T/C,[12],104 % of control
same,T/C,[13],90 % of control
O=C(O)c1c(Cl)c(Cl)c(Cl)c(Cl)c1Cl,T/C,[8],95 % of control
same,T/C,[9],100 % of control
same,T/C,"dose: 400.0 mg/kg/injection, schedule: Q01DX009 (ip), vehicle: saline with Tween-80",113 % of control
O=C1c2ccccc2C(=O)C1(Br)C(Cl)c1ccccc1 (stereo not drawn),T/C,"dose: 50.0 mg/kg/injection, schedule: Q01DX009 (ip), vehicle: Klucel (hydroxypropylcellulose) (HPC)",90 % of control
same,T/C,[10],95 % of control
same,T/C,"dose: 100.0 mg/kg/injection, schedule: Q04DX003 (ip), vehicle: Klucel (hydroxypropylcellulose) (HPC)",104 % of control
same,T/C,"dose: 200.0 mg/kg/injection, schedule: Q04DX003 (ip), vehicle: Klucel (hydroxypropylcellulose) (HPC)",100 % of control
CCOC(=O)CCC1CCCCC1=O (stereo not drawn),T/C,[4],103 % of control
same,T/C,[8],93 % of control
same,T/C,[9],103 % of control
CC1=CCCC(C)(C)C1/C=C(/C#N)C(=O)N=C(N)N (stereo not drawn),T/C,"dose: 50.0 mg/kg/injection, schedule: Q01DX009 (ip), vehicle: saline",99 % of control
same,T/C,"dose: 100.0 mg/kg/injection, schedule: Q01DX009 (ip), vehicle: saline",97 % of control
same,T/C,"dose: 200.0 mg/kg/injection, schedule: Q01DX009 (ip), vehicle: saline",99 % of control
CCCCCCC(/C=C/c1ccc(N(C)C)cc1)=N\O,T/C,[8],93 % of control
same,T/C,[9],93 % of control
O=C(N/N=C\c1c(O)ccc2ccccc12)c1ccncc1,T/C,[5],104 % of control
same,T/C,[6],105 % of control
C/C([O-])=N/c1n[n+](-c2ccc(Cl)cc2)no1,T/C,"dose: 3.12 mg/kg/injection, schedule: Q01DX009 (ip), vehicle: other",98 % of control
same,T/C,"dose: 6.25 mg/kg/injection, schedule: Q01DX009 (ip), vehicle: other",100 % of control
same,T/C,"dose: 12.5 mg/kg/injection, schedule: Q01DX009 (ip), vehicle: other",103 % of control
same,T/C,"dose: 25.0 mg/kg/injection, schedule: Q01DX009 (ip), vehicle: other",101 % of control
same,T/C,"dose: 50.0 mg/kg/injection, schedule: Q01DX009 (ip), vehicle: other",112 % of control
same,T/C,"dose: 100.0 mg/kg/injection, schedule: Q01DX009 (ip), vehicle: other",112 % of control
O=C(CBr)c1cc2c(cc1I)OCO2,T/C,"dose: 6.25 mg/kg/injection, schedule: Q01DX001 (ip), vehicle: saline with Tween-80",104 % of control
same,T/C,[14],105 % of control
same,T/C,[15],99 % of control and 101 % of control
same,T/C,[16],100 % of control
Cn1c(N)cc2nc3ccccc3n2c1=O,T/C,"dose: 60.0 mg/kg/injection, schedule: Q01DX005 (ip), vehicle: saline with Tween-80",96 % of control
same,T/C,"dose: 120.0 mg/kg/injection, schedule: Q01DX005 (ip), vehicle: saline with Tween-80",92 % of control
same,T/C,"dose: 240.0 mg/kg/injection, schedule: Q01DX005 (ip), vehicle: saline with Tween-80",89 % of control
Nc1ncnc2c1ncn2C1(CO)OCC(O)C(O)C1O (stereo not drawn),T/C,[11],101 % of control
same,T/C,[12],100 % of control
same,T/C,[13],101 % of control
O=C1OCCCCCCOC(=O)c2ccccc2SSc2ccccc21,T/C,[14],101 % of control
same,T/C,[15],94 % of control
same,T/C,[17],94 % of control
same,T/C,[18],88 % of control
same,T/C,[19],90 % of control
Cn1c(N)c(C(=O)C(F)(F)F)c(=O)n(C)c1=O,T/C,[4],99 % of control
same,T/C,[8],95 % of control
same,T/C,[9],95 % of control
CN(O)C1=c2ccccc2=NC1=O,T/C,[4],91 % of control
same,T/C,[8],92 % of control
same,T/C,[9],114 % of control
COc1ccc2c(c1)C(=O)C=C(c1ccccc1)S2(=O)=O,T/C,"dose: 60.0 mg/kg/injection, schedule: Q01DX005 (ip), vehicle: Klucel (hydroxypropylcellulose) (HPC)",110 % of control
same,T/C,"dose: 120.0 mg/kg/injection, schedule: Q01DX005 (ip), vehicle: Klucel (hydroxypropylcellulose) (HPC)",110 % of control
same,T/C,"dose: 240.0 mg/kg/injection, schedule: Q01DX005 (ip), vehicle: Klucel (hydroxypropylcellulose) (HPC)",117 % of control
CC(=O)c1sc(SSc2sc(C(C)=O)c(C)c2[N+](=O)[O-])c([N+](=O)[O-])c1C,T/C,"dose: 100.0 mg/kg/injection, schedule: Q04DX002 (ip), vehicle: Klucel (hydroxypropylcellulose) (HPC)",91 % of control
same,T/C,"dose: 200.0 mg/kg/injection, schedule: Q04DX002 (ip), vehicle: Klucel (hydroxypropylcellulose) (HPC)",89 % of control
same,T/C,"dose: 400.0 mg/kg/injection, schedule: Q04DX002 (ip), vehicle: Klucel (hydroxypropylcellulose) (HPC)",86 % of control
Ic1ccc([I+]c2ccc(I)cc2)cc1,T/C,[15],100 % of control
same,T/C,[17],99 % of control
same,T/C,[16],95 % of control
same,T/C,[18],100 % of control
same,T/C,[19],100 % of control
Nc1nc(=O)n(C2CC(O)C(CO)O2)cc1Cl (stereo not drawn),T/C,"dose: 25.0 mg/kg/injection, schedule: Q01DX005 (ip), vehicle: saline",98 % of control
same,T/C,"dose: 50.0 mg/kg/injection, schedule: Q01DX005 (ip), vehicle: saline",105 % of control
same,T/C,"dose: 100.0 mg/kg/injection, schedule: Q01DX005 (ip), vehicle: saline",100 % of control
same,T/C,"dose: 200.0 mg/kg/injection, schedule: Q01DX005 (ip), vehicle: saline",110 % of control
same,T/C,"dose: 400.0 mg/kg/injection, schedule: Q01DX005 (ip), vehicle: saline",107 % of control
C/C(=C\Cl)CN(C)C,T/C,[3],111 % of control
same,T/C,[4],111 % of control
same,T/C,[8],116 % of control
C=CC(=O)C1OC2OC(C)(C)OC2C2OC(C)(C)OC12 (stereo not drawn),T/C,[5],93 % of control
same,T/C,[6],97 % of control
same,T/C,[7],98 % of control
O=C(CNC(=O)n1ccnc1)N/N=C/c1ccco1,T/C,[5],95 % of control
same,T/C,[6],92 % of control
same,T/C,[7],89 % of control
OC(c1cc2c(Cl)cc(Cl)cc2c2cc(C(F)(F)F)ccc12)C1CCCCN1 (stereo not drawn),T/C,[1],101 % of control
same,T/C,[2],100 % of control
same,T/C,[3],100 % of control
CSC(=S)/C(=C(/[O-])c1ccccc1)[n+]1cccc(C)c1,T/C,"dose: 2.5 mg/kg/injection, schedule: Q04DX002 (ip), vehicle: saline with Tween-80",99 % of control
same,T/C,"dose: 5.0 mg/kg/injection, schedule: Q04DX002 (ip), vehicle: saline with Tween-80",106 % of control
same,T/C,"dose: 10.0 mg/kg/injection, schedule: Q04DX002 (ip), vehicle: saline with Tween-80",106 % of control
